We go through 16 compounds from patent publication US20230286970A1, “NOVEL OXADIAZOLE-BASED SELECTIVE HDAC6 INHIBITORS” (ITALFARMACO S.P.A., priority 2020, published 2023).

As usually defined, the IC50 is the midpoint of a concentration-inhibition curve.

One series deals with recombinant human HDAC6 (Homo sapiens (Human), UniProt Q9UBN7). The experiment in a line: Enzymatic screening, HDAC6 inhibition (fluorogenic FdL_G substrate). It counts as biochemical. Put shortly: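 Enzyme was preincubated with compound (8 doses, triplicate, 1% DMSO) in 25 mM Tris-HCl pH 8, 130 mM NaCl, 0.05% Tween-20, 10% glycerol, with BSA. A FLUOR DE LYS-Green substrate was then added, and fluorescence was read after developer plus 2 μM TSA.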
Sequence of recombinant human HDAC6 (Q9UBN7 whole entry): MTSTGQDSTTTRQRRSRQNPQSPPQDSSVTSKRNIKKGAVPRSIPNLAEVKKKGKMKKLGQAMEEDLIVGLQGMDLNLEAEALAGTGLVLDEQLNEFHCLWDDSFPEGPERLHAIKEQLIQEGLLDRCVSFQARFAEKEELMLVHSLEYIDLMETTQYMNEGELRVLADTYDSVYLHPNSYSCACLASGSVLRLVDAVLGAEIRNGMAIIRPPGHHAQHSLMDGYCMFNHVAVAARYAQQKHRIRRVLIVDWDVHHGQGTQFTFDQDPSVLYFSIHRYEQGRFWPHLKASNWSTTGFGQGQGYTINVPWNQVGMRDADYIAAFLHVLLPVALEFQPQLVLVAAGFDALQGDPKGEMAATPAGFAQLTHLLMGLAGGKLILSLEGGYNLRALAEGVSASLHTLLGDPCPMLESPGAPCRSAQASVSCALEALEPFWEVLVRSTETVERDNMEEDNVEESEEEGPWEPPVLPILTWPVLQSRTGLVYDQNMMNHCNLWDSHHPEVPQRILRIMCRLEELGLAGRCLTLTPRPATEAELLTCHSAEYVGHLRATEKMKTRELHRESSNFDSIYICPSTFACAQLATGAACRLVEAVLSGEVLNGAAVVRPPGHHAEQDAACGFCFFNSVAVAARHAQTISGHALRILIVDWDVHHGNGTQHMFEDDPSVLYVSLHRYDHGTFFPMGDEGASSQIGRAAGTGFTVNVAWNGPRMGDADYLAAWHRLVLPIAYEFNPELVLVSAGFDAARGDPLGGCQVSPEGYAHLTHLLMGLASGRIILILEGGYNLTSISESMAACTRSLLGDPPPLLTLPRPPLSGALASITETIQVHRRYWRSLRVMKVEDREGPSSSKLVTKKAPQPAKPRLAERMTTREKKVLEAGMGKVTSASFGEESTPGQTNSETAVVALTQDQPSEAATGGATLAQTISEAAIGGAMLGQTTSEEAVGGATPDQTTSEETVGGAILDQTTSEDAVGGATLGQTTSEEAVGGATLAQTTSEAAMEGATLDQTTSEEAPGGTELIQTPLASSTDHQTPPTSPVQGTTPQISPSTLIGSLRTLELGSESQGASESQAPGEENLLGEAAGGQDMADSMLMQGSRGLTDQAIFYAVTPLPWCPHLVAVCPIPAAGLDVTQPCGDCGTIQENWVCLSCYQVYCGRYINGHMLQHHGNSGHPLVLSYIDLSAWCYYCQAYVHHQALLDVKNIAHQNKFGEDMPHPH

In a further series the target is recombinant human HDAC1 (Homo sapiens (Human), UniProt Q13547). The experiment in a line: Enzymatic screening, HDAC1 inhibition (fluorogenic FdL_G substrate). It is filed as biochemical. A digest of the protocol:
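Recombinant human HDAC1 inhibition was measured fluorometrically using the FLUOR DE LYS-Green (FdL_G) substrate. Compounds at 8 doses (1% DMSO final) in Tris-HCl pH 8 buffer with NaCl, Tween-20 and glycerol were preincubated in triplicate with enzyme and 1 mg/mL BSA, then given substrate. Developer I plus 2 μM TSA was added, and fluorescence read after 25 minutes in the dark.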

The next series is described as follows: Stability in rat plasma. The settings on record: after 4 hours, 37° C.
The nature of series [1]: Stability in human plasma. The settings on record: after 4 hours, 37° C.
Experimental: In order to evaluate the stability to circulating enzymes, test compounds were incubated in human and rat plasma at 37° C. in a thermostated oscillating bath. Each test compound was incubated at μM concentration (50 μM when the samples were analysed by UV/HPLC, 1 or 2 μM when the samples were analysed by LC-MS/MS) for 0, 15, 30 minutes and 1, 2 and 4 hours. The reaction was stopped placing samples on ice bath and adding acidified acetonitrile. After centrifugation (10 minutes at 14000 rpm) an aliquot of the supernatant was diluted with water, filtered with 0.45 μm regenerated cellulose syringe filters and injected in HPLC-UV or in LC-MS/MS. The percentage of the remaining amount at the various incubation times with respect to the initial amount were calculated. The half-life in plasma was also calculated.
Series [2] in a line: Stability to Phase I metabolism in rat S9 liver fraction. The settings on record: after 90 minutes, 37° C.
The nature of series [3]: Stability to Phase I metabolism in human S9 liver fraction. The settings on record: after 90 minutes, 37° C.

Where only a bound is given, the exact number is not on record here.

Sequence of recombinant human HDAC1 (Q13547 whole entry): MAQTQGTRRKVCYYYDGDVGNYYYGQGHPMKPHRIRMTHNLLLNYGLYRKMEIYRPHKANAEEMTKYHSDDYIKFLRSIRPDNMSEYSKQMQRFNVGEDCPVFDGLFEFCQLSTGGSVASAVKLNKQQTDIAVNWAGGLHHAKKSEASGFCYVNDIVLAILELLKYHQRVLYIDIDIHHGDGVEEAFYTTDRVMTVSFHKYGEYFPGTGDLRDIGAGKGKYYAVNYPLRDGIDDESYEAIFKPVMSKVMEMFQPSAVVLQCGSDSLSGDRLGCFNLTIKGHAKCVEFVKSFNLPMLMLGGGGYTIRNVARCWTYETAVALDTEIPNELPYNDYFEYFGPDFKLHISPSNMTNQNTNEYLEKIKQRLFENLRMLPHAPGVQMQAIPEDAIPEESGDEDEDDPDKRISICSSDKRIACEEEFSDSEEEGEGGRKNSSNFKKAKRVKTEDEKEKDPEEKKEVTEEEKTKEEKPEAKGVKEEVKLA

Take `CCCCC(c1ccc(-c2nnc(C(F)F)o2)cc1)n1cc(-c2ccc(N)nc2)nn1` (stereo not drawn) [compound 235, 5-(1-(1-(4-(5-(difluoromethyl)-1,3,4-oxadiazol-2-yl)phenyl)pentyl)-1H-1,2,3-triazol-4-yl)pyridin-2-amine]: the IC50 on recombinant human HDAC6 was 202 nM; at recombinant human HDAC1, over 200000 nM. Moreover, in the series “Stability in rat plasma”, the “residual percentage in RAT PLASMA” value is listed as 84%. Moreover, in series [1], the “residual percentage in HUMAN PLASMA” value was 90%. The “residual percentage in RAT S9 FRACTION” value in series [2] worked out at 63%. The “residual percentage in HUMAN S9 FRACTION” value in series [3] was 92%.

For `O=C1Nc2ccc(-c3cn(Cc4ccc(-c5nnc(C(F)F)o5)cn4)nn3)cc2C12CCNC2` (stereo not drawn) [compound 28, 5-(1-((5-(5-(difluoromethyl)-1,3,4-oxadiazol-2-yl)pyridin-2-yl)methyl)-1H-1,2,3-triazol-4-yl)spiro[indoline-3,3′-pyrrolidin]-2-one], the IC50 at recombinant human HDAC6 is 13 nM; on recombinant human HDAC1, over 200000 nM. Besides, the “residual percentage in RAT PLASMA” value in the series “Stability in rat plasma” is recorded as 64%. Further, the “residual percentage in HUMAN PLASMA” value in series [1] amounted to 74%. Besides, in series [2], the “residual percentage in RAT S9 FRACTION” value amounted to 97%. For the same compound, the “residual percentage in HUMAN S9 FRACTION” value in series [3] was determined as 98%.

For `Nc1cncc(-c2nnn(Cc3ccc(-c4nnc(C(F)F)o4)cc3)n2)c1` [compound 90, 5-(2-(4-(5-(difluoromethyl)-1,3,4-oxadiazol-2-yl)benzyl)-2H-tetrazol-5-yl)pyridin-3-amine], the IC50 at recombinant human HDAC6 is 34 nM; on recombinant human HDAC1, over 200000 nM. Also, the “residual percentage in RAT PLASMA” value in “Stability in rat plasma” turned out to be 88%. Moreover, the “residual percentage in HUMAN PLASMA” value in series [1] was determined as 80%. Moreover, the “residual percentage in RAT S9 FRACTION” value in series [2] is 13%. Also, the “residual percentage in HUMAN S9 FRACTION” value in series [3] was found to be 83%.

On to `O=C1NCc2ccc(-c3cn(Cc4ccc(-c5nnc(C(F)F)o5)cc4)nn3)cc21` [compound 109, 6-(1-(4-(5-(difluoromethyl)-1,3,4-oxadiazol-2-yl)benzyl)-1H-1,2,3-triazol-4-yl)isoindolin-1-one], for which the IC50 was 42 nM at recombinant human HDAC6 and over 200000 nM at recombinant human HDAC1. Further, the “residual percentage in RAT PLASMA” value in “Stability in rat plasma” is reported as 78%. The “residual percentage in HUMAN PLASMA” value in series [1] is recorded as 89%. Also, the “residual percentage in RAT S9 FRACTION” value in series [2] is listed as 87%. In addition, the “residual percentage in HUMAN S9 FRACTION” value in series [3] was 82%.

Regarding `CCNc1nc2ccc(-c3cn(Cc4ccc(-c5nnc(C(F)F)o5)cc4)nn3)cc2[nH]1` [compd. 60, 6-(1-(4-(5-(difluoromethyl)-1,3,4-oxadiazol-2-yl)benzyl)-1H-1,2,3-triazol-4-yl)-N-ethyl-1H-benzo[d]imidazol-2-amine], the figures for the IC50 at recombinant human HDAC6 and at recombinant human HDAC1 were 26 nM and 32900 nM, respectively. The “residual percentage in RAT PLASMA” value in the series “Stability in rat plasma” is listed as 81%. The “residual percentage in HUMAN PLASMA” value in series [1] came out at 76%. The “residual percentage in RAT S9 FRACTION” value in series [2] is recorded as 94%. In addition, the “residual percentage in HUMAN S9 FRACTION” value in series [3] worked out at 70%.

For `CN(C)C(=O)c1cccc(-c2nnn(Cc3ccc(-c4nnc(C(F)F)o4)cc3)n2)c1` [compound 81, 3-(2-(4-(5-(difluoromethyl)-1,3,4-oxadiazol-2-yl)benzyl)-2H-tetrazol-5-yl)-N,N-dimethylbenzamide], the IC50 at recombinant human HDAC6 is 33 nM; on recombinant human HDAC1, over 200000 nM. In the series “Stability in rat plasma”, the “residual percentage in RAT PLASMA” value came to 87%. The “residual percentage in HUMAN PLASMA” value in series [1] is 87%. Further, the “residual percentage in RAT S9 FRACTION” value in series [2] turned out to be 14%. The “residual percentage in HUMAN S9 FRACTION” value in series [3] was determined as 78%.

On to `Cc1ncc(-c2nnn(Cc3ccc(-c4nnc(C(F)F)o4)cc3)n2)cc1N` [compound 65, 5-(2-(4-(5-(difluoromethyl)-1,3,4-oxadiazol-2-yl)benzyl)-2H-tetrazol-5-yl)-2-methylpyridin-3-amine], for which the IC50 on recombinant human HDAC6 was 28 nM; on recombinant human HDAC1 it was over 200000 nM. In “Stability in rat plasma”, the “residual percentage in RAT PLASMA” value came to 76%. In addition, the “residual percentage in HUMAN PLASMA” value in series [1] is 94%. Besides, in series [2], the “residual percentage in RAT S9 FRACTION” value worked out at 35%. The “residual percentage in HUMAN S9 FRACTION” value in series [3] is given as 99%.

With `CCC[C@@H](c1ccc(-c2nnc(C(F)F)o2)cc1)n1cc(-c2ccc(N)nc2)nn1` [compound 250, (S)-5-(1-(1-(4-(5-(difluoromethyl)-1,3,4-oxadiazol-2-yl)phenyl)butyl)-1H-1,2,3-triazol-4-yl)pyridin-2-amine], the IC50 on recombinant human HDAC6 was 293 nM; at recombinant human HDAC1, over 200000 nM. For the same compound, the “residual percentage in RAT PLASMA” value in the series “Stability in rat plasma” is 82%. For the same compound, in series [1], the “residual percentage in HUMAN PLASMA” value is recorded as 91%. Besides, the “residual percentage in RAT S9 FRACTION” value in series [2] came out at 89%. The “residual percentage in HUMAN S9 FRACTION” value in series [3] was found to be 88%.

As to `CC[C@H](c1ccc(-c2nnc(C(F)F)o2)cc1)n1cc(-c2ccc(N)nc2)nn1` (stereo in doubt) [compound 194, 5-(1-(1-(4-(5-(difluoromethyl)-1,3,4-oxadiazol-2-yl)phenyl)propyl)-1H-1,2,3-triazol-4-yl)pyridin-2-amine], the IC50 on recombinant human HDAC6 was 104 nM; at recombinant human HDAC1, over 200000 nM. Further, the “residual percentage in RAT PLASMA” value in the series “Stability in rat plasma” is recorded as 88%. Further, in series [1], the “residual percentage in HUMAN PLASMA” value is on record as 90%. Besides, the “residual percentage in RAT S9 FRACTION” value in series [2] is 77%. Further, the “residual percentage in HUMAN S9 FRACTION” value in series [3] is listed as 95%.

Consider `CC(=O)Nc1cc(-c2nnn(Cc3ccc(-c4nnc(C(F)F)o4)cc3)n2)cnc1C` [compound 133, N-(5-(2-(4-(5-(difluoromethyl)-1,3,4-oxadiazol-2-yl)benzyl)-2H-tetrazol-5-yl)-2-methylpyridin-3-yl)acetamide], for which the IC50 was 51 nM on recombinant human HDAC6 and over 200000 nM at recombinant human HDAC1. In addition, the “residual percentage in RAT PLASMA” value in “Stability in rat plasma” is 69%. Moreover, the “residual percentage in HUMAN PLASMA” value in series [1] came out at 88%. Besides, the “residual percentage in RAT S9 FRACTION” value in series [2] was found to be 78%. Besides, the “residual percentage in HUMAN S9 FRACTION” value in series [3] is given as 98%.

On to `CC(c1ccc(-c2nnc(C(F)F)o2)cc1F)n1cc(-c2ccc(N)nc2)nn1` (stereo not drawn) [compound 185, 5-(1-(1-(4-(5-(difluoromethyl)-1,3,4-oxadiazol-2-yl)-2-fluorophenyl)ethyl)-1H-1,2,3-triazol-4-yl)pyridin-2-amine], for which the IC50 at recombinant human HDAC6 was 96 nM; at recombinant human HDAC1, over 200000 nM. For the same compound, in the series “Stability in rat plasma”, the “residual percentage in RAT PLASMA” value was determined as 62%. The “residual percentage in HUMAN PLASMA” value in series [1] is listed as 97%. In addition, in series [2], the “residual percentage in RAT S9 FRACTION” value is on record as 69%. Also, the “residual percentage in HUMAN S9 FRACTION” value in series [3] is given as 86%.

In the case of `FC(F)c1nnc(-c2ccc(Cn3cc(-c4ccc(NC5=NCCN5)cc4)cn3)nc2)o1` [compd. 270, N-(4-(1-((5-(5-(difluoromethyl)-1,3,4-oxadiazol-2-yl)pyridin-2-yl)methyl)-1H-pyrazol-4-yl)phenyl)-4,5-dihydro-1H-imidazol-2-amine], the IC50 is 18 nM at recombinant human HDAC6 and over 200000 nM at recombinant human HDAC1. Further, the “residual percentage in RAT PLASMA” value in “Stability in rat plasma” is on record as 78%. Besides, the “residual percentage in HUMAN PLASMA” value in series [1] was found to be 89%. The “residual percentage in RAT S9 FRACTION” value in series [2] turned out to be 79%. In addition, in series [3], the “residual percentage in HUMAN S9 FRACTION” value was determined as 93%.

Take `Nc1ncc(-c2nnn(Cc3ccc(-c4nnc(C(F)F)o4)cc3)n2)cn1` [compound 79, 5-(2-(4-(5-(difluoromethyl)-1,3,4-oxadiazol-2-yl)benzyl)-2H-tetrazol-5-yl)pyrimidin-2-amine]: the IC50 at recombinant human HDAC6 was 33 nM; at recombinant human HDAC1, over 200000 nM. For the same compound, the “residual percentage in RAT PLASMA” value in “Stability in rat plasma” worked out at 77%. In series [1], the “residual percentage in HUMAN PLASMA” value amounted to 85%. Moreover, the “residual percentage in RAT S9 FRACTION” value in series [2] was found to be 78%. For the same compound, in series [3], the “residual percentage in HUMAN S9 FRACTION” value came out at 96%.

For the compound `FC(F)c1nnc(-c2ccc(Cn3nnnc3-c3csc4ccccc34)cc2)o1` [compound 288, 2-(4-((5-(benzo[b]thiophen-3-yl)-1H-tetrazol-1-yl)methyl)phenyl)-5-(difluoromethyl)-1,3,4-oxadiazole], the IC50 was 355 nM on recombinant human HDAC6 and over 200000 nM on recombinant human HDAC1. The “residual percentage in RAT PLASMA” value in “Stability in rat plasma” was 86%. Also, the “residual percentage in HUMAN PLASMA” value in series [1] is 78%. In addition, in series [2], the “residual percentage in RAT S9 FRACTION” value was found to be 9%. Also, the “residual percentage in HUMAN S9 FRACTION” value in series [3] is given as 54%.

Regarding `NC(=O)c1cccc(-c2nnn(Cc3ccc(-c4nnc(C(F)F)o4)cc3F)n2)c1` [compound 50, 3-(2-(4-(5-(difluoromethyl)-1,3,4-oxadiazol-2-yl)-2-fluorobenzyl)-2H-tetrazol-5-yl)benzamide], the IC50 at recombinant human HDAC6 is 22 nM; on recombinant human HDAC1, over 200000 nM. Further, the “residual percentage in RAT PLASMA” value in the series “Stability in rat plasma” was found to be 87%. The “residual percentage in HUMAN PLASMA” value in series [1] was determined as 89%. Further, the “residual percentage in RAT S9 FRACTION” value in series [2] is on record as 66%. The “residual percentage in HUMAN S9 FRACTION” value in series [3] is recorded as 95%.

For `Nc1ccc(-c2cnn(Cc3ccc(-c4nnc(C(F)F)o4)cc3)c2)cn1` [compound 211, 5-(1-(4-(5-(difluoromethyl)-1,3,4-oxadiazol-2-yl)benzyl)-1H-pyrazol-4-yl)pyridin-2-amine], the IC50 was 147 nM on recombinant human HDAC6 and over 200000 nM on recombinant human HDAC1. Besides, the “residual percentage in RAT PLASMA” value in “Stability in rat plasma” is on record as 89%. Besides, the “residual percentage in HUMAN PLASMA” value in series [1] is listed as 91%. Besides, in series [2], the “residual percentage in RAT S9 FRACTION” value amounted to 80%. Further, the “residual percentage in HUMAN S9 FRACTION” value in series [3] was found to be 63%.
